Key:
[1] = system: liver of CCl4 injured mice; assay type: in vivo, mouse; conditions: CCl4 injured mice
Description: CCl4 Liver Fibrosis Model:
Male C57BL/6 mice (Charles River Laboratories, Wilmington, MA) were treated with carbon tetrachloride for 12 weeks (0.1 ml of 20% CCl4 in olive oil the first week, 30% the second week, and 40% from weeks 3-12) by oral gavage, 2-3 times per week. Control mice were fed vehicle (olive oil) only.
A total of 53 C57BL/6 mice were included to study CCl4 induced hepatic fibrosis: • A. CCl4 for 12 weeks (n=20). Each mouse was imaged with probe 1 and then imaged again 24 hours later with probe 2. Probe 1 and Probe 2 were randomly chosen from GdDOTA, GdCHyd, Mn-12, Gd-9 and Gd-10. • B. Vehicle treated control (n=20). Each mouse was imaged with probe 1 and then imaged again 24 hours later with probe 2. Probe 1 and Probe 2 were randomly chosen from GdDOTA, Mn-12, GdCHyd, Gd-9, Gd-10. • C. CCl4 for 12 weeks (n=3, another 3 pair-wise comparison have been done in group A). Each mouse was imaged with probe 1 and then imaged again 24 hours later with probe 2. […] Each mouse was imaged with probe 1 and then imaged again 24 hours later with probe 2. Probe 1 and Probe 2 were randomly choosing from Gd-9 and Gd-10. • E. CCl4 for 12 weeks (n=3). Each mouse was imaged with Gd-9. After 24 hours, the same mouse was first injected with 1000 μmol/kg of Yb-9 and then injected with 100 μmol/kg of Gd-9 15 min after the Yb-9 injection.
Animals were anesthetized with isoflurane (1-2%) and placed in a specially designed cradle with body temperature maintained at 37° C. The inhaled isoflurane level was adjusted to maintain a respiration rate of 60±5 breaths per minute. The tail vein was cannulated for intravenous (i.v.) delivery of the contrast agent while the animal was positioned in the scanner. Imaging was performed at 4.7 T using a small bore animal scanner with a custom-built volume coil. Mice were imaged with a dose of 100 μmol/kg from 30 mM stock solution of Gd or Mn complex.
For mice liver imaging, a series of baseline images (3D T1 weighted fast low angle shot magnetic resonance imaging (FLASH)) were first acquired (repetition time/echo time=15/2 ms; flip angle, 30°; field of view, 48×30 mm^2; matrix size, […]; slice thickness, 0.25 mm; acquisition time, 3 minutes 20 seconds), then a bolus of Gd or Mn complex was administered i.v. and imaging performed for a period of 45 min p.i. with the repetition acquisition of 3D T1 weighted FLASH sequences. Following the imaging session, animals were sacrificed (75 min p.i.) and liver tissue was subjected to histopathologic analysis.
For liver imaging analysis, a region of interest (ROI) was manually traced encompassing the liver parenchyma while avoiding major blood vessels. A second ROI was placed on the dorsal muscle visible in the same image slice to quantify the signal intensity in the muscle for comparison. Seven ROIs were placed in the field of view without any tissue (air) to measure the variation in background signal. More than 20 axial slices per mouse across the entire liver were analyzed in this fashion. […] Contrast to noise ratio (CNR) was calculated by measuring the difference in signal intensity (SI) between liver and muscle and normalizing to the standard deviation of the signal in the air, eq 21. ΔCNR was calculated by subtracting CNR measured prior to probe injection (CNRPre) from CNR measured after injection (CNRPost), eq 22. […]

[2] = system: lungs of bleomycin-injured mice; test: PET probe lung uptake in naïve and bleomycin-injured mice (gamma counter); assay type: in vivo, mouse; conditions: 90 min post injection; for Lung uptake, Bleo: 14 days post bleomycin injury; for Lung uptake, Naïve: naïve mice
Description: C57Bl/6 adult male mice at 8 weeks of age (Jackson Laboratories, Barr Harbor, ME) received a single intratracheal dose of bleomycin, 1 units/kg body weight (50 μL total volume) (Fresenius Kabi, Lake Zurich, Il) as previously described in Desogere, P., et al. Optimization of a Collagen-Targeted PET Probe for Molecular Imaging of Pulmonary Fibrosis. J Nuc Med 58, 1991-1996 (2017).
Imaging and Biodistribution Study for Selectivity of Allysine-Reactive Probes In Vivo:
(§1) Bleomycin-injured mice at 14 days after injury were sedated and then injected with Compound 19, Compound 20, Gd-CHyd (Akam, E. A., et al. Improving the reactivity of hydrazine-bearing MRI probes for in vivo imaging of lung fibrogenesis. Chemical Science 11, 224-231 (2020)) formulated to contain an equal concentration of Eu-DOTA as a non-binding control probe. Animals were then euthanized at 30 minutes after injection. The lungs were harvested separately, along with blood, tail and liver. Each sample was analyzed by ICP-MS for gadolinium and europium content, and the lungs were also assessed for hydroxyproline content. Selectivity is reported as the ratio of Gd to Eu. All animals were dosed via tail vein injection at 100 nmol/g body weight from 30 mM solutions of gadolinium probes with 30 mM Eu-DOTA as determined by ICP-MS. For PET probes, Compounds 1-8 were radiolabeled with either ^68Ga or ^64Cu and the dose was delivered as a bolus injection through tail vein. Animals were euthanized 90 min post injection and their organs and tissues were harvested and counted using a gamma counter. For an imaging study with a PET tracer, animals were injected inside PET/MRI scanner and scanned dynamically for 60 min under anesthesia. The animals were euthanized 90 min post injection and their organs and tissues were counted using a gamma counter. The biodistribution of Mn-15, Mn-16, Mn-17, and Mn-18 was determined by injecting a mixture of ^52/nat complex into naïve mice and activity in each tissue were measured 24 hours post injection.

[3] = system: lungs of bleomycin-injured mice; test: ^68Ga-7 PET/MRI imaging and organ counts in bleomycin-injured and naïve mice; assay type: in vivo, mouse; conditions: for probe uptake in lungs, PET scans: 55 min p.i.; for probe uptake in lungs, organ counts: 90 min p.i.
Description: as §1
Probe ^68Ga-7 was synthesized in 5 steps. Male C57BL/6 mice were intratracheally instilled with bleomycin (1.2 U/kg) and imaged after 14 days when allysine levels peak in the lung. Bleomycin injured mice or age-matched controls were placed in a micro-PET/MRI scanner and administered ^68Ga-7 as a bolus via the lateral tail vein and dynamically imaged for 60 minute. At 90 min p.i. animals were euthanized, and their organs were harvested for gamma counting. After gamma counting, lungs were flash-frozen and later analyzed for hydroxyproline (total collagen, fibrosis measure) and allysine content.

[4] = target: T1, BSA-ALD (oxidized bovine serum albumin containing allysine aldehyde groups) (Bos taurus, UniProt P02769); test: Relaxivity measurements with BSA-Ald; assay type: binding; conditions: 1.4 T, 37° C., BSA-Ald 10 mg/mL
T1 construct: made in house; host or cells: no expression host: BSA oxidised chemically with sodium ascorbate, ferric chloride and H2O2, then desalted on PD-10
Description: Preparation of Allysine Containing Bovine Serum Albumin, BSA-ALD:
To a solution of bovine serum albumin (BSA) (100 mg) dissolved in phosphate buffered saline (4 mL, pH 7.4, 0.25 mM), sodium ascorbate (20 mg), ferric chloride (120 μL, 10 mM) and 20 μL H2O2 (30% w) were added. The reaction was stirred at 37° C. for 24 hours, and sodium ascorbate (20 mg) was added repeatedly every 8 hours. After the reaction, protein was purified using PD-10 Sephadex G25 desalting columns (GE Healthcare), eluted with PBS. Protein concentration was assessed using the ‘BCA Protein Assay Kit’ (Thermo Scientific). Protein carbonyl concentration was determined by ‘Protein Carbonyl Content Assay Kit’ (Sigmal-Aldrich).
Alternatively, preparation of BSA^Ald and binding of Gd^3+ probe to protein was carried out according to modified procedures. To a solution of bovine serum albumin (BSA) (100 mg) dissolved in phosphate buffered saline (4 mL, pH 7.4, 0.25 mM) was added sodium ascorbate (20 mg), ferric chloride (120 μL, 10 mM) and 20 μL H2O2 (30% w). The reaction was stirred at 37° C. for 24 h, and sodium ascorbate (20 mg) was added repeatedly every 8 h. After 24 h, the protein was purified using PD-10 Sephadex G25 desalting columns (GE Healthcare), eluted with PBS. Protein concentration was assessed using the ‘Micro BCA Protein Assay Kit’ (Thermo Scientific, 23235). Protein carbonyl concentration was determined by ‘Protein Carbonyl Content Assay Kit’ (Sigma-Aldrich, MAK094-1KT). […] The protein solutions were kept at a concentration of 20 mg/mL for further use.
(§2) BSA-ALD (10 mg/mL) or BSA (10 mg/mL) were treated for 24 hours at 37° C. with the corresponding Gd or Mn complex at a range of concentrations (0.01-0.2 mM), with a total volume of 300 μL maintained for all samples. After 24 hours, an aliquot of the solution (50 μL) was used for longitudinal (T1) relaxation measurements, recorded using a Bruker mq60 Minispec at 1.41 T and 37° C. Longitudinal (T1) relaxation times were measured via an inversion recovery experiment using 10 inversions of duration ranging between 0.05×T1 and 10×T1. Solutions (concentration range: 0.1 mM-1.0 mM) in PBS were run in parallel. To measure the relaxivity of BSA-bound species, sodium cyanoborohydride (10 mg) was added to the solution to irreversibly bind the probe to the protein. After a further 2h incubation at 37° C., protein-bound and protein-free solutions were separated by ultrafiltration. Then 200 μL PBS was added to the residue to dissolve the protein. Longitudinal (T1) relaxation times for the bounded species were measured using a Bruker mq60 Minispec at 1.41 T and 37° C. After the measurement, concentration of corresponding metal ion (Gd/Mn) in the residue and filter were both determined using an Agilent 8800 ICP-MS system. Relaxivity (r1) was determined from the slope of a plot of 1/T1 vs metal concentration for 5 concentrations.

[5] = target: bovine serum albumin (BSA) (Bos taurus, UniProt P02769); test: Relaxivity measurements with BSA; assay type: binding; conditions: 1.4 T, 37° C., BSA 10 mg/mL
Description: as §2

[6] = Relaxivity measurements in PBS; assay type: physicochemical; conditions: 1.4 T, 37° C.
Description: as §2

T1 sequence (P02769 25-607): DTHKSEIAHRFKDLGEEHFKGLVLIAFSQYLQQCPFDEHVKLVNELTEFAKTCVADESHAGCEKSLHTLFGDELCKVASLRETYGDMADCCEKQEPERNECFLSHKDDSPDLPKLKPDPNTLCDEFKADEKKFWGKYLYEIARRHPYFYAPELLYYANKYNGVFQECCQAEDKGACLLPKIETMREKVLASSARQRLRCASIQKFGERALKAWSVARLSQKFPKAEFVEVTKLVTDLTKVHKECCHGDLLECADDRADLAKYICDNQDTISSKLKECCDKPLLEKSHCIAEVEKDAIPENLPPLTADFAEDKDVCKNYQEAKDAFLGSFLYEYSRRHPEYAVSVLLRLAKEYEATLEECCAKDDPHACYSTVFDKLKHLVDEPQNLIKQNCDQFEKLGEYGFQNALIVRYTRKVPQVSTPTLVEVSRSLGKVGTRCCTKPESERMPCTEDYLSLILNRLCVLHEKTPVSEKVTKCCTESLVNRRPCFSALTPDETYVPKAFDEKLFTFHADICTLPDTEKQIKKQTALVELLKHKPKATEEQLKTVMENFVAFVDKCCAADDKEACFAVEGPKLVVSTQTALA
Chain of bovine serum albumin (BSA) (P02769 25-607): as above

Molecule | Lung uptake, Bleo [2] [% ID/g] | Lung uptake, Naïve [2] [% ID/g] | other results
NN1CCN(C(=O)CCC(C(=O)[O-])N2CCN(CC(=O)[O-])CCN(CC(=O)[O-])CCN(C(CCC(=O)N3CCN(N)CC3)C(=O)[O-])CC2)CC1.[Yb+3] (stereo not shown) [Yb-9] | – | – | blocking of Gd-9 liver MRI enhancement ([1]; 10-fold dose (1000 μmol/kg) 15 minutes before Gd-9): completely eliminated liver MRI enhancement with Gd-9
NC(Cn1cccc1)C(=O)NCCOCCOCCOCCNC(=O)CN1CCN(CC(=O)[O-])CCN(CC(=O)[O-])CC1.[64Cu+2] (stereo not shown) [^64Cu-2] | 0.42 | 0.26 | –
O=C([O-])CN1CCN(CC(=O)[O-])CCN(CC(=O)NCCOCCOCCOCCNC(=O)CN2C(=O)CSC2=S)CC1.[64Cu+2] [^64Cu-4] | 0.66 | 0.38 | –
NN1CCN(C(=O)CCOCCOCCOCCOCCNC(=O)CN2CCN(CC(=O)[O-])CCN(CC(=O)[O-])CC2)CC1.[68Ga+3] [^68Ga-1] | 0.99 | 0.27 | –
NC(Cn1cccc1)C(=O)NCCOCCOCCOCCNC(=O)CN1CCN(CC(=O)[O-])CCN(CC(=O)[O-])CC1.[68Ga+3] (stereo not shown) [^68Ga-2] | 0.96 | 0.45 | –
Cc1cc(O)n(CC(=O)NCCOCCOCCOCCNC(=O)CN2CCN(CC(=O)[O-])CCN(CC(=O)[O-])CC2)n1.[68Ga+3] [^68Ga-3] | 2.13 | 0.82 | –
O=C([O-])CN1CCN(CC(=O)[O-])CCN(CC(=O)NCCOCCOCCOCCNC(=O)CN2C(=O)CSC2=S)CC1.[68Ga+3] [^68Ga-4] | 0.61 | 0.24 | –
NNC(=O)C(N)CCC(=O)NCCOCCOCCOCCNC(=O)CN1CCN(CC(=O)[O-])CCN(CC(=O)[O-])CC1.[68Ga+3] (stereo not shown) [^68Ga-5] | 0.88 | 0.30 | –
CNCCC1=NN(CC(=O)NCCOCCOCCOCCNC(=O)CN2CCN(CC(=O)[O-])CCN(CC(=O)[O-])CC2)C(=O)C1.[68Ga+3] [^68Ga-6] | 1.32 | 0.84 | –
NNC(CCC(=O)NCCOCCOCCOCCNC(=O)CN1CCN(CC(=O)[O-])CCN(CC(=O)[O-])CC1)C(=O)O.[68Ga+3] (stereo not shown) [^68Ga-7] | – | – | probe uptake in lungs, PET scans ([3]; Bleomycin injured mice (n = 5)): 0.51 % ID/cc; probe uptake in lungs, organ counts ([3]; Bleomycin injured mice (n = 5)): 2.65 % ID/g; probe uptake in lungs, PET scans ([3]; Naïve mice (n = 4)): 0.23 % ID/cc; probe uptake in lungs, organ counts ([3]; Naïve mice (n = 4)): 0.886 % ID/g; uptake in bleomycin injured lung compared to ^68Ga-NODAGA-indole ([3]; mouse, in vivo): twice the uptake; blood clearance and elimination ([3]; naïve animal): rapid blood clearance
GdDOTA [reference compound] | – | – | r1, +BSA-Ald [4]: 4.0 mM⁻¹ s⁻¹; liver enhancement ([1]; 45 min p.i.): no significant liver enhancement; ΔCNR (liver to muscle) ([1]; 45 min post injection, 100 μmol/kg i.v., group mean): 0.1 ± 0.2; r1, +BSA [5]: 4.0 mM⁻¹ s⁻¹; r1, PBS [6]: 4.0 mM⁻¹ s⁻¹
